Results as given in publication PMC6691761, “Potential multifunctional agents with anti-hepatoma and anti-inflammation properties by inhibiting NF-кB activation” (Journal of Enzyme Inhibition and Medicinal Chemistry, 2019).

Legend:
[1] = system: C-caspase-3 expression in HepG2 cells; assay: Western blot, C-caspase-3 expression in HepG2 cells; assay type: cell-based, human; settings: HepG2, 1.0, 2.0, and 4.0 μM
Procedure: (§1) The HepG2 cells were treated with BAP 96 at different concentrations (1.0, 2.0, and 4.0 µM) for 3 h, and washed twice by PBS. The cells were lysed and the extracted proteins of cell lysates were separated by 10% SDS-PAGE gel electrophoresis, then transferred onto polyvinylidene fluorides membranes. The membranes were probed with antibodies and visualized using an enhanced chemiluminescence (ECL) detection kit.

HepG2 xenografts = HepG2 xenografts growth in nude mice; assay type: in vivo, Balb/c nude mice
Procedure: (§2) The HepG2 cells xenografts were established using the Balb/c nude mice (female, 7-week-old, 17–19 g, n = 30) (Shanghai Laboratory Animal Center, Shanghai Shi, China) were used to investigate the anti-hepatoma effect of 96. Animal experiments were reviewed and approved by the Binzhou Medical University Experimental Animal Committee. Briefly, HepG2 cells (1 × 10^7/0.2 ml PBS/mouse) were inoculated subcutaneously. Three days after the inoculation, the mice were randomly divided into five groups: the saline treated group (Control), 96 (0.2 mg/kg) group, 96 (1.0 mg/kg) treated group, 96 (5.0 mg/kg) treated group, and DOX (1.0 mg/kg) treated group. 96 were dissolved in saline containing 1% of DMSO and administered intraperitoneally every 2 d for 20 days. DOX was also administered intraperitoneally every 2 d for 20 d. The body weight and HepG2 xenografts volumes were recorded from the day of treatment, and xenografts volumes were calculated using the equation: tumour volume = length×(width)[2]×π/6. At the end of the experiment, mice were sacrificed and the xenografts were obtained for western blotting, HE staining and immunohistochemistry staining.

[2] = system: TNF-α expression in HepG2 xenografts; assay: Immunohistochemistry staining of TNF-α in HepG2 xenografts; assay type: in vivo, Balb/c nude mice; settings: 96 5.0 mg/kg, DOX 1.0 mg/kg, versus model group
Procedure: as §2
(§3) The HepG2 xenografts tissues were embedded using the paraffin, and sectioned for HE staining and immunohistochemistry staining. HE staining was performed routinely. The immunohistochemistry staining carried out as following. […]

[3] = system: p-IκBα in TNF-α-stimulated HepG2 cells; assay: TNF-α-stimulated phosphorylation of IκBα in HepG2 cells; assay type: cell-based, human; settings: HepG2, 1.0, 2.0, and 4.0 μM
Procedure: as §1
(§4) It is known that NF-κB has been implicated in the crossroad of inflammation and cancer[25]^,[26]. In our previous study, some BAPs (such as 23 and 67) could inhibit NF-κB activation by inhibiting the phosphorylation of NF-κB (P65) and IκB[13]^,[14]. Herein, it is an urgent to resolve whether 96 has the same mechanism of action as 23 and 67. Therefore, the RAW264.7 cells were pretreated with LPS, and then treated with different concentrations (1.0, 2.0, 4.0 μM) of 96. […] Similarly, the HepG2 cells were pretreated with TNF-α, then treated with different concentrations (1.0, 2.0, and 4.0 μM) of 96.

[4] = system: BAX expression in HepG2 cells; assay: Western blot, BAX expression in HepG2 cells; assay type: cell-based, human; settings: HepG2, 1.0, 2.0, and 4.0 μM
Procedure: as §1

[5] = system: human cervical carcinoma cells (HeLa); assay: Cytotoxicity, MTT assay, HeLa; assay type: cell-based
From the text: (§5) Compounds 83–102 were screened against human neoplastic cell lines, such as human breast cancer cells (MCF-7), human colon cancer cells (HCT116), human lung carcinoma cells (A549), human gastric adenocarcinoma cells (SGC7901), human liver hepatocellular carcinoma cell line (HepG2), human cervical carcinoma cells (HeLa), human acute mononuclear granulocyte leukaemia (THP-1), and human normal hepatic cell line (LO2) using modified MTT assay. All the cells were obtained from the American Type Culture Collection (ATCC, Manassas, VA). The cells were cultured in DMEM or 1640. Positive controls (Doxorubicin (DOX) and Curcumin) and BAPs were initially dissolved in dimethyl sulphoxide (DMSO). Experimental concentration of DMSO was always 0.1% (v/v). The concentrations of BAPs and positive controls were 50, 20, 10, 5, 2.5, 1, 0.5, 0.1, 0.05, and 0.01 μg/mL.
(§6) The cells (1 × 10^4 cells/well) were seeded in a 96-well plate and incubated for 24 h. Cells treated with serial concentrations of drugs were incubated for another 24 h. After the media removed, 20 μL of MTT (5 mg/mL) solution was added and incubated for 4 h at 37 °C. The MTT solution was removed and then 150 μL of DMSO was added. The optical density was measured with a multi-well plate reader (TECAN, Mӓnnedorf, Switzerland) at 570 nm. The results are expressed as a decrease in the cell viability (%) in comparison to untreated controls. The concentration of each compound was examined in triplicate, and the IC50 values are expressed in Table 1.

[6] = system: human colon cancer cells (HCT116); assay: Cytotoxicity, MTT assay, HCT116; assay type: cell-based
From the text: as §5, §6

[7] = system: BAX expression in HepG2 xenografts; assay: Western blot, BAX in HepG2 xenografts; assay type: in vivo, Balb/c nude mice; settings: 0.2, 1.0 and 5.0 mg/kg
Procedure: as §2
Western blotting was performed to detect the expression of Bcl-2, Bax and C-caspase-3 in HepG2 xenografts. Fresh HepG2 xenografts tissues were lysed and the obtained proteins were processed as the protein obtained from the HepG2 cells.

[8] = system: human gastric adenocarcinoma cells (SGC7901); assay: Cytotoxicity, MTT assay, SGC7901; assay type: cell-based
From the text: as §5, §6

[9] = system: human normal hepatic cell line (LO2); assay: Toxicity to normal cells, MTT assay, LO2; assay type: cell-based; settings: Homo sapiens, 24 h
From the text: as §5, §6

[10] = system: p-p65 in LPS-stimulated RAW264.7 cells; assay: LPS-stimulated phosphorylation of p65 in RAW264.7 cells; assay type: cell-based; settings: RAW264.7, 1.0, 2.0, 4.0 μM
Procedure: as §1, §4

[11] = system: Bcl-2 expression in HepG2 xenografts; assay: Immunohistochemistry staining of Bcl-2 in HepG2 xenografts; assay type: in vivo, Balb/c nude mice; settings: 96 5.0 mg/kg, DOX 1.0 mg/kg, versus model group
Procedure: as §2, §3

[12] = system: human breast cancer cells (MCF-7); assay: Cytotoxicity, MTT assay, MCF-7; assay type: cell-based
From the text: as §5, §6

[13] = quotient of IC50 towards LO2 cells

## CN1CC(=Cc2cccc(N=Cc3cc(Br)ccc3O)c2)C(=O)C(=Cc2ccccc2F)C1 [Compound 96]
[1]
  Expression of C-caspase-3: dose-dependently increased
HepG2 xenografts; 0.2 mg/kg intraperitoneally every 2 d for 20 days
  Growth of HepG2 xenografts: slightly decreased the growth of HepG2 xenografts
HepG2 xenografts; 1.0 mg/kg intraperitoneally every 2 d for 20 days
  Growth of HepG2 xenografts: slightly decreased the growth of HepG2 xenografts
HepG2 xenografts; 5.0 mg/kg intraperitoneally every 2 d for 20 days
  Growth of HepG2 xenografts: significantly inhibited the growth of HepG2 xenografts
[2]
  TNF-α expression, immunohistochemistry: significantly reduced
[3]
  Phosphorylation of IκBα induced by TNF-α: dose-dependent downward trend
[4]
  Expression of pro-apoptotic protein BAX: dose-dependently increased
[5]; Homo sapiens, HeLa, MTT, 24 h
  IC50: 2.1 ± 0.8 µM
[5]; [13]
  HeLa SI (selectivity index): 9.5
[6]; Homo sapiens, HCT-116, MTT, 24 h
  IC50: 2.5 ± 0.1 µM
[6]; [13]
  HCT116 SI (selectivity index): 8.0
[7]
  Expression of BAX in HepG2 xenografts: significantly increased in a dose-dependent manner
[8]; Homo sapiens, SGC-7901, MTT, 24 h
  IC50: 2.4 ± 0.8 µM
[8]; [13]
  SGC7901 SI (selectivity index): 8.3
[9]
  IC50: 19.9 ± 0.4 µM
[10]
  Expression level of LPS-induced p-p65: effectively decreased in a dose-dependent manner
[11]
  Bcl-2 expression, immunohistochemistry: significantly reduced
[12]; Homo sapiens, MCF7, MTT, 24 h
  IC50: 2.5 ± 0.2 µM
[12]; [13]
  MCF-7 SI (selectivity index): 8.0
